Test results published in patent publication US8653076B2, “Oxo-substituted imidazo[1,2B]pyridazines, their preparation and use as pharmaceuticals” (Bayer Intellectual Property GmbH, priority 2006, dated 2014).

How the values were obtained:
protein kinase C theta = biological target: T1, protein kinase C theta (Homo sapiens, UniProt Q04759); assay: PKC-theta HTRF kinase assay; type: biochemical; details: recombinant PKC-theta, 10 μM ATP, read-out: Inhibition of PKC theta IC50
T1 construct: purchased ProQinase (Freiburg)
Description: Inhibition of the enzymic activity of the protein kinase C theta was determined with the aid of the PKC-theta HTRF assay.
Recombinant PKC-theta protein was purchased from ProQinase (Freiburg). The kinase substrate used was the biotinylated peptide having the amino acid sequence biotin-RFARKGSLRQKNVHEVK, which was purchased from Biosynthan (Berlin).
PKC-theta [0.7 nM in the assay mixture, assay volume 5 μl] was incubated at 22° C. for 15 min in the presence of various concentrations of test substances (0 μM, and 10 measurement points within the range 0.001-20 μM in duplicates) in assay buffer [50 mM Hepes/NaOH pH 7.4, 1.0 mM MnCl2, 10.0 mM MgCl2, 1.0 mM dithiothreitol, 0.1 mM sodium orthovanadate, 10 μM adenosine triphosphate (ATP), 0.5 μM substrate peptide, 0.1 mg/ml phosphatidyl serine, 0.01 mg/ml diacylglycerol, 1% (v/v) dimethyl sulfoxide]. The reaction was stopped by adding 5 μl of an EDTA/detection solution [50 mM Hepes/NaOH pH 7.4, 400 mM KF, 40 mM EDTA, 0.1% bovine serum albumin, 100 nM streptavidin-XLlent (from Cisbio, #611SAXLB), 1.8 nM anti-phospho PKC substrate crypate conjugate antibody (CisBio: #61P03KAZ)]. […]

[1] = system: interleukin 2 (IL-2) secretion; assay: anti-CD3/anti-CD28 antibody-induced IL-2 secretion in human PBMC (ELISA); type: cell-based; details: human PBMC stimulated with anti-CD3 and anti-CD28, 20 hours
Description: The extent to which test substance influence antibody-induced interleukin 2 (IL-2) secretion was investigated in the following test system. IL-2 represents a central cytokine which is produced and released by activated T cells. IL-2 synthesis in the T cells is regulated by a plurality of kinases. An inhibitory effect of substances on kinases leads inter alia to inhibition of IL-2 synthesis and inhibition of the T cell immune response. The cytokine determinations were carried out using an ELISA kit.
Peripheral blood mononuclear cells (PBMC) were isolated from heparinized human whole blood by gradient centrifugation using Histopaque 1077 (Sigma) at room temperature, and the erythrocytes were lyzed hypotonically and, after washing twice in PBS, taken up in cell culture medium (10% fetal inactivated calf serum in RPMI-1640+Glutamax-I [Gibco]).
The 96 well culture plates (Costar) were previously incubated with 100 μl of antibody solution in PBS 0.1 μg/ml in PBS [Gibco]) per well at 4° C. for 18 hours. The antibodies used were anti-CD3 and anti-CD28 monoclonal antibodies (PharMingen). After washing with PBS three times, the plates were charged with 200 μl of the cell suspension (40 000 cells/well). […]
Interleukin-2 was determined using an ELISA kit (Bioscience), and the absorption of the color change was analyzed in a SpectraMax 340 PC (wavelength 450 nm). […]

T1 sequence (Q04759 whole entry): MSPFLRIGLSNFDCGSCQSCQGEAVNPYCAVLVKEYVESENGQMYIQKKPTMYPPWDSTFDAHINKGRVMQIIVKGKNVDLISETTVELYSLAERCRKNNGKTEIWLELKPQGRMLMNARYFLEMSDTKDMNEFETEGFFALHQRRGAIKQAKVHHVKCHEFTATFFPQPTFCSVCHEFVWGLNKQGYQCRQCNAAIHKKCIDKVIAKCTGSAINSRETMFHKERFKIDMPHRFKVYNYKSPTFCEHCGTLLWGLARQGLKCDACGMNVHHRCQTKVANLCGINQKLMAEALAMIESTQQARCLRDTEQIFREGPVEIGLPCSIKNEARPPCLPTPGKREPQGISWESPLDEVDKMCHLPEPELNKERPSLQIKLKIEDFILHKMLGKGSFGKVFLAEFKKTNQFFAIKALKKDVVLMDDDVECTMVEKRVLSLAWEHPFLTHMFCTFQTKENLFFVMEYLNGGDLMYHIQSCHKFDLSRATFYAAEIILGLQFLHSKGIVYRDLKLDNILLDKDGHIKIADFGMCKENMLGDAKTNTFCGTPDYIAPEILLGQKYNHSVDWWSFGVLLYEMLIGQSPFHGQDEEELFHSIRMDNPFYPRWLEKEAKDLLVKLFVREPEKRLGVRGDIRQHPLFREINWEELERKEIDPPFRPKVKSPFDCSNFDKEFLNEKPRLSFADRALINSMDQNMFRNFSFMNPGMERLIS

`Clc1cccc(-c2cnc3ccc(OCCCN4CCOCC4)nn23)c1` [Example 1, 3-(3-Chlorophenyl)-6-(3-morpholin-4-ylpropoxy)imidazo[1,2-b]pyridazine] gave an IC50 (protein kinase C theta) of 4100 nM, an inhibition at 10 µM ([1]; 10 μM) greater than 95% and an IC50 ([1]; IL-2 ELISA, read-out: IC50 (concentration for 50% inhibition of IL-2)) of 1300 nM.
